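Dose response: 5 concentrations. Exposure: 48 h. Format: 96-well plates. Endpoint: linear interpolation; highest concentration if not reached. Here, GI50 denotes the concentration required for 50% inhibition of growth. TGI: concentration producing complete growth inhibition.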
Key:
Assay in all cases: NCI anticancer screen, dose series, 48 h
A498 renal = test system: A498 renal
A549 NSCLC = test system: A549 NSCLC
ACHN renal = test system: ACHN renal
BT-549 breast = test system: BT-549 breast
CAKI-1 renal = test system: CAKI-1 renal
CCRF-CEM leukemia = test system: CCRF-CEM leukemia
COLO 205 colon = test system: COLO 205 colon
DU-145 prostate = test system: DU-145 prostate
EKVX NSCLC = test system: EKVX NSCLC
HCC-2998 colon = test system: HCC-2998 colon
HCT-15 colon = test system: HCT-15 colon
HL-60(TB) leukemia = test system: HL-60(TB) leukemia
HOP-62 NSCLC = test system: HOP-62 NSCLC
HOP-92 NSCLC = test system: HOP-92 NSCLC
HS 578T breast = test system: HS 578T breast
HT29 colon = test system: HT29 colon
IGROV1 ovarian = test system: IGROV1 ovarian
K-562 leukemia = test system: K-562 leukemia
KM12 colon = test system: KM12 colon
M14 melanoma = test system: M14 melanoma
MALME-3M melanoma = test system: MALME-3M melanoma
MCF7 breast = test system: MCF7 breast
MDA-MB-231 breast = test system: MDA-MB-231 breast
MDA-MB-435 = test system: MDA-MB-435
MOLT-4 leukemia = test system: MOLT-4 leukemia
NCI-H226 lung = test system: NCI-H226 lung
NCI-H23 lung = test system: NCI-H23 lung
NCI-H460 lung = test system: NCI-H460 lung
NCI-H522 lung = test system: NCI-H522 lung
NCI/ADR-RES ovarian = test system: NCI/ADR-RES ovarian
OVCAR-3 ovarian = test system: OVCAR-3 ovarian
OVCAR-4 ovarian = test system: OVCAR-4 ovarian
OVCAR-5 ovarian = test system: OVCAR-5 ovarian
OVCAR-8 ovarian = test system: OVCAR-8 ovarian
PC-3 prostate = test system: PC-3 prostate
RXF 393 renal = test system: RXF 393 renal
SF-268 CNS = test system: SF-268 CNS
SF-295 CNS = test system: SF-295 CNS
SF-539 CNS = test system: SF-539 CNS
SK-MEL-2 melanoma = test system: SK-MEL-2 melanoma
SK-MEL-28 melanoma = test system: SK-MEL-28 melanoma
SK-MEL-5 melanoma = test system: SK-MEL-5 melanoma
SK-OV-3 ovarian = test system: SK-OV-3 ovarian
SN12C renal = test system: SN12C renal
SNB-19 CNS = test system: SNB-19 CNS
SNB-75 CNS = test system: SNB-75 CNS
SR leukemia = test system: SR leukemia
SW-620 colon = test system: SW-620 colon
T-47D breast = test system: T-47D breast
TK-10 renal = test system: TK-10 renal
U251 CNS = test system: U251 CNS
UACC-257 melanoma = test system: UACC-257 melanoma
UACC-62 melanoma = test system: UACC-62 melanoma
UO-31 renal = test system: UO-31 renal
786-0 renal = test system: 786-0 renal
HCT-116 colon = test system: HCT-116 colon
LOX IMVI melanoma = test system: LOX IMVI melanoma
RPMI-8226 leukemia = test system: RPMI-8226 leukemia

NC(=O)c1ncn2c1CNC(=O)C2
TGI (A498 renal): > 100 µM | TGI (A549 NSCLC): > 100 µM | TGI (ACHN renal): > 100 µM | TGI (BT-549 breast): > 100 µM | TGI (CAKI-1 renal): > 100 µM | TGI (CCRF-CEM leukemia): > 100 µM | TGI (COLO 205 colon): > 100 µM | TGI (DU-145 prostate): > 100 µM | TGI (EKVX NSCLC): > 100 µM | TGI (HCC-2998 colon): > 100 µM | TGI (HCT-15 colon): > 100 µM | TGI (HL-60(TB) leukemia): > 100 µM | TGI (HOP-62 NSCLC): > 100 µM | TGI (HOP-92 NSCLC): > 100 µM | TGI (HS 578T breast): > 100 µM | TGI (HT29 colon): > 100 µM | TGI (IGROV1 ovarian): > 100 µM | TGI (K-562 leukemia): > 100 µM | TGI (KM12 colon): > 100 µM | TGI (M14 melanoma): > 100 µM | TGI (MALME-3M melanoma): > 100 µM | TGI (MCF7 breast): > 100 µM | TGI (MDA-MB-231 breast): > 100 µM | TGI (MDA-MB-435): > 100 µM | TGI (MOLT-4 leukemia): > 100 µM | TGI (NCI-H226 lung): > 100 µM | TGI (NCI-H23 lung): > 100 µM | TGI (NCI-H460 lung): > 100 µM | TGI (NCI-H522 lung): > 100 µM | TGI (NCI/ADR-RES ovarian): > 100 µM | TGI (OVCAR-3 ovarian): > 100 µM | TGI (OVCAR-4 ovarian): > 100 µM | TGI (OVCAR-5 ovarian): > 100 µM | TGI (OVCAR-8 ovarian): > 100 µM | TGI (PC-3 prostate): > 100 µM | TGI (RXF 393 renal): > 100 µM | TGI (SF-268 CNS): > 100 µM | TGI (SF-295 CNS): > 100 µM | TGI (SF-539 CNS): > 100 µM | TGI (SK-MEL-2 melanoma): > 100 µM | TGI (SK-MEL-28 melanoma): > 100 µM | TGI (SK-MEL-5 melanoma): > 100 µM | TGI (SK-OV-3 ovarian): > 100 µM | TGI (SN12C renal): > 100 µM | TGI (SNB-19 CNS): > 100 µM | TGI (SNB-75 CNS): > 100 µM | TGI (SR leukemia): > 100 µM | TGI (SW-620 colon): > 100 µM | TGI (T-47D breast): > 100 µM | TGI (TK-10 renal): > 100 µM | TGI (U251 CNS): > 100 µM | TGI (UACC-257 melanoma): > 100 µM | TGI (UACC-62 melanoma): > 100 µM | TGI (UO-31 renal): > 100 µM

CCC(=O)O[C@@H]([C@H](C)[C@H]1OC(CC)=C(C)C(=O)[C@@H]1C)[C@@H](C)C(=O)CC
GI50 (786-0 renal): > 100 µM | TGI (786-0 renal): > 100 µM | GI50 (A498 renal): 88.9 µM | TGI (A498 renal): > 100 µM | GI50 (A549 NSCLC): > 100 µM | TGI (A549 NSCLC): > 100 µM | GI50 (ACHN renal): > 100 µM | TGI (ACHN renal): > 100 µM | GI50 (BT-549 breast): 90.2 µM | TGI (BT-549 breast): > 100 µM | GI50 (CCRF-CEM leukemia): > 100 µM | TGI (CCRF-CEM leukemia): > 100 µM | GI50 (COLO 205 colon): 68.6 µM | TGI (COLO 205 colon): > 100 µM | GI50 (DU-145 prostate): > 100 µM | TGI (DU-145 prostate): > 100 µM | GI50 (EKVX NSCLC): > 100 µM | TGI (EKVX NSCLC): > 100 µM | GI50 (HCC-2998 colon): 0.183 µM | TGI (HCC-2998 colon): 47 µM | GI50 (HCT-116 colon): 55.6 µM | TGI (HCT-116 colon): > 100 µM | GI50 (HCT-15 colon): > 100 µM | TGI (HCT-15 colon): > 100 µM | GI50 (HL-60(TB) leukemia): 37.4 µM | TGI (HL-60(TB) leukemia): > 100 µM | GI50 (HOP-62 NSCLC): > 100 µM | TGI (HOP-62 NSCLC): > 100 µM | GI50 (HOP-92 NSCLC): > 100 µM | TGI (HOP-92 NSCLC): > 100 µM | GI50 (HS 578T breast): 96.8 µM | TGI (HS 578T breast): > 100 µM | GI50 (HT29 colon): 53.6 µM | TGI (HT29 colon): > 100 µM | GI50 (IGROV1 ovarian): 19.9 µM | TGI (IGROV1 ovarian): > 100 µM | GI50 (K-562 leukemia): 61.6 µM | TGI (K-562 leukemia): > 100 µM | GI50 (KM12 colon): 60.1 µM | TGI (KM12 colon): > 100 µM | GI50 (LOX IMVI melanoma): > 100 µM | TGI (LOX IMVI melanoma): > 100 µM | GI50 (M14 melanoma): > 100 µM | TGI (M14 melanoma): > 100 µM | GI50 (MALME-3M melanoma): > 100 µM | TGI (MALME-3M melanoma): > 100 µM | GI50 (MCF7 breast): > 100 µM | TGI (MCF7 breast): > 100 µM | GI50 (MDA-MB-231 breast): > 100 µM | TGI (MDA-MB-231 breast): > 100 µM | GI50 (MDA-MB-435): > 100 µM | TGI (MDA-MB-435): > 100 µM | GI50 (MOLT-4 leukemia): 60 µM | TGI (MOLT-4 leukemia): > 100 µM | GI50 (NCI-H226 lung): > 100 µM | TGI (NCI-H226 lung): > 100 µM | GI50 (NCI-H23 lung): 37.8 µM | TGI (NCI-H23 lung): > 100 µM | GI50 (NCI-H460 lung): 78.7 µM | TGI (NCI-H460 lung): > 100 µM | GI50 (NCI/ADR-RES ovarian): 31.7 µM | TGI (NCI/ADR-RES ovarian): > 100 µM | GI50 (OVCAR-3 ovarian): 0.0316 µM | TGI (OVCAR-3 ovarian): 0.751 µM | GI50 (OVCAR-4 ovarian): 40.8 µM | TGI (OVCAR-4 ovarian): > 100 µM | GI50 (OVCAR-5 ovarian): 32.7 µM | TGI (OVCAR-5 ovarian): > 100 µM | GI50 (OVCAR-8 ovarian): > 100 µM | TGI (OVCAR-8 ovarian): > 100 µM | GI50 (PC-3 prostate): 59.6 µM | TGI (PC-3 prostate): > 100 µM | GI50 (RPMI-8226 leukemia): 66.8 µM | TGI (RPMI-8226 leukemia): > 100 µM | GI50 (RXF 393 renal): > 100 µM | TGI (RXF 393 renal): > 100 µM | GI50 (SF-268 CNS): > 100 µM | TGI (SF-268 CNS): > 100 µM | GI50 (SF-295 CNS): > 100 µM | TGI (SF-295 CNS): > 100 µM | GI50 (SF-539 CNS): > 100 µM | TGI (SF-539 CNS): > 100 µM | GI50 (SK-MEL-2 melanoma): > 100 µM | TGI (SK-MEL-2 melanoma): > 100 µM | GI50 (SK-MEL-28 melanoma): > 100 µM | TGI (SK-MEL-28 melanoma): > 100 µM | GI50 (SK-MEL-5 melanoma): 53.6 µM | TGI (SK-MEL-5 melanoma): > 100 µM | GI50 (SK-OV-3 ovarian): > 100 µM | TGI (SK-OV-3 ovarian): > 100 µM | GI50 (SN12C renal): > 100 µM | TGI (SN12C renal): > 100 µM | GI50 (SNB-19 CNS): > 100 µM | TGI (SNB-19 CNS): > 100 µM | GI50 (SNB-75 CNS): > 100 µM | TGI (SNB-75 CNS): > 100 µM | GI50 (SR leukemia): 92.4 µM | TGI (SR leukemia): > 100 µM | GI50 (SW-620 colon): > 100 µM | TGI (SW-620 colon): > 100 µM | GI50 (T-47D breast): 23.6 µM | TGI (T-47D breast): > 100 µM | GI50 (TK-10 renal): > 100 µM | TGI (TK-10 renal): > 100 µM | GI50 (U251 CNS): > 100 µM | TGI (U251 CNS): > 100 µM | GI50 (UACC-257 melanoma): > 100 µM | TGI (UACC-257 melanoma): > 100 µM | GI50 (UACC-62 melanoma): 60.8 µM | TGI (UACC-62 melanoma): > 100 µM | GI50 (UO-31 renal): > 100 µM | TGI (UO-31 renal): > 100 µM
